Experimental data as given in US20100280046A1, “Methods and Compositions for Treating Prostate Cancer, Benign Prostatic Hypertrophy, Polycystic Ovary Syndrome and Other Conditions” (DIOBEX, INC., priority 2006, published 2010).
“Also recorded” adds a separate entry of the source. Values belong to the compound of their own block, whether it stands above or below them.

Legend:
[1] = system: plasma testosterone; test: Plasma testosterone in rats four hours after oral gavage of increasing dosage (FIG. 1); format: in vivo; conditions: Sprague-Dawley rats, in olive oil
Experimental: The concentration of testosterone in the plasma of Sprague-Dawley rats was determined four hours after delivery by oral gavage of increasing dosage of the racemate or of the indicated enantiomer.
The effect of ketoconazole and the ketoconazole enantiomers on testosterone levels in the plasma of Sprague Dawley rats was determined. […] To generate the results shown in FIG. 1, fifteen groups (ten per group) of rats were used. The rats were maintained on a 14/10 hour light/dark cycle and allowed free access to food and water. Each rat was dosed with the indicated drug (or vehicle) at the indicated dosage via a gastric tube. All of the rats were dosed between 2.00 and 3.00 pm and were sacrificed four hours later (between 6.00 and 7.00 pm). Plasma was prepared and the concentration of testosterone determined by an enzyme linked immuno assay (ELISA).

[2] = system: plasma testosterone; test: Time course of depression of plasma testosterone in rats after 200 mg/kg (FIG. 2); format: in vivo; conditions: Sprague-Dawley rats, 200 mg/kg oral gavage, indicated times after dosing
Experimental: The rats were maintained and dosed as described above. Plasma was prepared at the indicated times after dosing and the concentration of testosterone in the plasma determined by ELISA.

[3] = system: 17,20 lyase; conditions: cited from earlier work
[4] = target: T1, 17α hydroxylase (Homo sapiens, UniProt P05093); conditions: cited from earlier work
T1 sequence (P05093 1-508): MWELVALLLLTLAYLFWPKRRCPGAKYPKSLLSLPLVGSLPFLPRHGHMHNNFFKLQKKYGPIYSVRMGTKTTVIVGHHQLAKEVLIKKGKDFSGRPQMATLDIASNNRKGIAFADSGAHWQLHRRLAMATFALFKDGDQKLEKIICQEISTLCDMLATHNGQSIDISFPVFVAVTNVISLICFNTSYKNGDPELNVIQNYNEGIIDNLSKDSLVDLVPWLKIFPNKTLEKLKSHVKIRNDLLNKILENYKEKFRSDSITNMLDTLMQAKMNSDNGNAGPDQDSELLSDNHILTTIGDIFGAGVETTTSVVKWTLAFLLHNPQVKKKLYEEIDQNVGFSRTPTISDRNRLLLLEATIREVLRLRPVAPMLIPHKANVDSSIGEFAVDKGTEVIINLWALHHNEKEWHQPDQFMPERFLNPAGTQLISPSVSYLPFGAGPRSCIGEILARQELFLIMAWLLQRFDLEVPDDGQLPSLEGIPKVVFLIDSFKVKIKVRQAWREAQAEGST

[5] = ketoconazole treated patients; cited from earlier work
[6] = isolated guinea pig hearts; cited from earlier work
[7] = accelerated in the presence of water and elevated temperatures; cited from earlier work
[8] = Plasma levels of the two ketoconazole enantiomers in patients after fourteen daily doses (FIG. 4, FIG. 5); format: in vivo, humans; conditions: for hepatic extraction (from the plasma into the liver): inferred from plasma profiles in patients; for plasma level (pharmacokinetic profile) of the enantiomer after racemic ketoconazole: 400 mg racemic ketoconazole (200 mg 2S,4R and 200 mg 2R,4S) once per day
Experimental: Each patient was given the appropriate drug once per day in the evening. After fourteen daily doses the level of each of the two enantiomers present in the plasma of the patients was determined at the indicated time points following the last dose of drug.
Assays were established and validated using isolated and purified enantiomers. […] Solid phase extraction (SPE) and HPLC/MS/MS were used to determine the concentration of the enantiomers 2R,4S and 2S,4R, of Ketoconzaole from human plasma. 2R,4S and 2S,4R Ketoconzaole were extracted from the plasma sample using SPE, 96 well plates packed with a reversed phase C8 extraction beds from Varian (Lake Forest, Calif.). An aliquot of the extract was injected onto a HPLC/MS/MS triple quadrupole mass spectrometer (Sciex API3000). A Chiralpak AD-H, 5 μm HPLC column (2.1×150 mm) from Chiral Technologies (West Chester, Pa.) preceded by an AD-H guard column (0.4×1.0 cm) were used to separate 2R,4S and 2S,4R Ketoconzaole and the internal standard terconazole. The peak area of multiple product ions (531.4→82.2, […], and 531.4→489.5) of the enantiomers of Ketoconzaole were summed and measured against the peak area of the product ion of the internal standard (terconazole, 534.5-÷ 219.3). Quantitation was performed using 1/x^2 weighted linear least squares regression line generated from similarly extracted plasma calibration samples ranging from 5 to 1000 ng/mL. All plasma was preserved with K3EDTA.

[9] = oral racemic ketoconazole, healthy subjects; cited from earlier work
[10] = patients, after fourteen daily doses

SMILES: CC(=O)N1CCN(c2ccc(OCC3COC(Cn4ccnc4)(c4ccc(Cl)cc4Cl)O3)cc2)CC1 (racemic) [racemic ketoconazole, 1-acetyl-4-[4-[[2-(2,4-dichlorophenyl)-2-[(1H-imidazol-1-yl)-methyl]-1,3-dioxolan-4-yl]methoxy]phenyl]piperazine]
lowering of plasma testosterone [1]: dose dependent effect
time course of depression of plasma testosterone [2]: testosterone levels recover following dosing
potency toward 17,20 lyase [3]: inhibit
inhibition of 17α hydroxylase [4]: inhibit
level of liver specific enzymes in the serum [5]: increase in these enzymes has been noted
risk of cardiac arrhythmia [6]: may be associated with an increased risk of cardiac arrhythmia
degradation (oxidation) [7]: can undergo degradation (oxidation)

hepatic extraction (from the plasma into the liver) [8]: relatively low hepatic extraction
SMILES: CC(=O)N1CCN(c2ccc(OC[C@@H]3CO[C@@](Cn4ccnc4)(c4ccc(Cl)cc4Cl)O3)cc2)CC1 [2S,4R enantiomer]
lowering of plasma testosterone [1]: more effective at lowering testosterone than any either racemic ketoconazole or the 2R,4S enantiomer of ketoconazole; also recorded: significantly more efficacious than both the ketoconazole racemate and the other cis enantiomer (2R,4S)
time course of depression of plasma testosterone ([2]; 200 mg/kg): more effective at lowering testosterone than either racemic ketoconazole or the other cis enantiomer present in racemic ketoconazole (2R,4S)
time course of depression of plasma testosterone ([2]; listed as 2S,4R, 200 mg/kg): significantly more efficacious than 2R,4S with respect to reducing testosterone levels
plasma level (pharmacokinetic profile) of the 2S,4R enantiomer given alone ([8]; patients, 200 mg 2S,4R enantiomer once per day, after fourteen daily doses): very similar when given alone; also recorded: approximately the same as the plasma level of the 2S,4R enantiomer when patients are given both 200 mg 2S,4R and 200 mg 2R,4S
plasma level (pharmacokinetic profile) of the enantiomer after racemic ketoconazole [8, 10]: significantly greater than the pharmacokinetic profile of the 2R,4S enantiomer
potency toward 17,20 lyase [3]: more potent toward 17,20 lyase than is the other enantiomer 2R,4S
plasma level of the enantiomer after racemic ketoconazole [9]: approximately three times greater than that of the 2R,4S enantiomer

hepatic extraction (from the plasma into the liver) [8]: more efficient extraction
SMILES: CC(=O)N1CCN(c2ccc(OC[C@H]3CO[C@](Cn4ccnc4)(c4ccc(Cl)cc4Cl)O3)cc2)CC1 (single isomer, unassigned) [2R,4S enantiomer, reference compound]
plasma level (pharmacokinetic profile) of the enantiomer after racemic ketoconazole [8, 10]: approximately one third of the plasma concentration of the 2S,4R enantiomer
